Measured values published in US10059717B2, “Urea compounds containing 3,4-dihydropyrimido[4,5-D]pyrimidin-2(1H)-one skeleton as protein kinase inhibitors” (KOREA INSTITUTE OF SCIENCE AND TECHNOLOGY, priority 2016, dated 2018).

Assays:
Test in all cases: Kinase panel biochemical assay
Conditions in all cases: 1 μM single concentration, read-out: % residual enzyme activity
FER = FER (Homo sapiens, UniProt P16591)
Experimental: (§1) In order to measure the protein kinase inhibitory activity (% inhibition) of the compounds of the present invention, biochemical assays were performed on the full kinase panel listed in the following Table 1.
(§2) As an test compound, 1-(3-(7-((6-(4-ethylpiperazine-1-carbonyl)pyridin-3-yl)amino)-1-methyl-2-oxo-1,4-dihydropyrimido[4,5-d]pyrimidin-3(2H)-yl)-4-methylphenyl)-3-(2-methoxyphenyl)urea (Compound No. 14) was used. The kinase inhibitory efficacy was measured upon treatment with a 1 μM single concentration of the test compound to calculate % residual enzyme activity value.
(§3) ABL1, FGFR2, TAOK2/TAO1, EPHA5, EPHB2, EPHB3, RET, LYN B, EPHA2, FRK/PTK5, EPHA8, LCK, EPHB4, FYN, KHS/MAP4K5, DDR1, EPHA3, P38a/MAPK14, EPHA4, FMS, EPHB1, HCK, FGFR1, ABL2/ARG, EPHA6, c-Src, ACK1, FLT4NEGFR3, ERBB4/HER4, DDR2, KDRNEGFR2, LYN, ZAK/MLTK, YES/YES1, BLK, FGR, MLCK2/MYLK2, TAOK1, BMX/ETK, BTK, EPHA1, JAK1, P38b/MAPK11, TIE2/TEK, FLT1NEGFR1, TXK, SRMS, RAF1, SIK1, MLK3/MAP3K11, PEAK1, TRKA, EPHA7, GLK/MAP4K3, MLK2/MAP3K10, TEC, CSK, TRKC, FES/FPS, SIK2, FGFR3, BRK, YSK4/MAP3K19, ARAF, PDGFRb, TNK1, GCK/MAP4K2, PDGFRa, TNIK, TAK1, ERBB2/HER2, LIMK1, HIPK4, FER, EGFR, JAK2, HPK1/MAP4K1, TRKB, RIPK3, LOK/STK10, LIMK2, MLK1/MAP3K9, BRAF, MEKK3, MEK5, STK32B/YANK2, FGFR4, MEKK2, SLK/STK2, FLT3, PKAcg, TAOK3/JIK, TYRO3/SKY, SIK3, IR, LRRK2, PYK2, NEK11, p70S6K/RPS6KB1, LATS2.

EPHA6 = EPHA6 (Homo sapiens, UniProt Q9UF33)
Experimental: as §1, §2, §3

IR = IR (Homo sapiens, UniProt P06213)
Experimental: as §1, §2, §3

BRK = BRK (Homo sapiens, UniProt Q13882)
Experimental: as §1, §2, §3

ABL1 = ABL1 (Homo sapiens, UniProt P00519)
Experimental: as §1, §2, §3

YSK4/MAP3K19 = YSK4/MAP3K19 (Homo sapiens, UniProt Q56UN5)
Experimental: as §1, §2, §3

DDR2 = DDR2 (Homo sapiens, UniProt Q16832)
Experimental: as §1, §2, §3

p70S6K/RPS6KB1 = p70S6K/RPS6KB1 (Homo sapiens, UniProt P23443)
Experimental: as §1, §2, §3

KDRNEGFR2 = KDRNEGFR2 (Homo sapiens, UniProt P35968)
Experimental: as §1, §2, §3

EPHB3 = EPHB3 (Homo sapiens, UniProt P54753)
Experimental: as §1, §2, §3

LYN = LYN (Homo sapiens, UniProt P07948)
Experimental: as §1, §2, §3

HCK = HCK (Homo sapiens, UniProt P08631)
Experimental: as §1, §2, §3

BRAF = BRAF (Homo sapiens, UniProt P15056)
Experimental: as §1, §2, §3

FGR = FGR (Homo sapiens, UniProt P09769)
Experimental: as §1, §2, §3

TAOK3/JIK = TAOK3/JIK (Homo sapiens, UniProt Q9H2K8)
Experimental: as §1, §2, §3

EPHA4 = EPHA4 (Homo sapiens, UniProt P54764)
Experimental: as §1, §2, §3

RAF1 = RAF1 (Homo sapiens, UniProt P04049)
Experimental: as §1, §2, §3

BTK = BTK (Homo sapiens, UniProt Q06187)
Experimental: as §1, §2, §3

FGFR2 = FGFR2 (Homo sapiens, UniProt P21802)
Experimental: as §1, §2, §3

GCK/MAP4K2 = GCK/MAP4K2 (Homo sapiens, UniProt Q12851)
Experimental: as §1, §2, §3

EPHA8 = EPHA8 (Homo sapiens, UniProt P29322)
Experimental: as §1, §2, §3

TNK1 = TNK1 (Homo sapiens, UniProt Q13470)
Experimental: as §1, §2, §3

BLK = BLK (Homo sapiens, UniProt P51451)
Experimental: as §1, §2, §3

EPHB4 = EPHB4 (Homo sapiens, UniProt P54760)
Experimental: as §1, §2, §3

LIMK1 = LIMK1 (Homo sapiens, UniProt P53667)
Experimental: as §1, §2, §3

LOK/STK10 = LOK/STK10 (Homo sapiens, UniProt O94804)
Experimental: as §1, §2, §3

MEKK2 = MEKK2 (Homo sapiens, UniProt Q9Y2U5)
Experimental: as §1, §2, §3

FGFR4 = FGFR4 (Homo sapiens, UniProt P22455)
Experimental: as §1, §2, §3

EPHA3 = EPHA3 (Homo sapiens, UniProt P29320)
Experimental: as §1, §2, §3

FYN = FYN (Homo sapiens, UniProt P06241)
Experimental: as §1, §2, §3

FES/FPS = FES/FPS (Homo sapiens, UniProt P07332)
Experimental: as §1, §2, §3

Measured: remaining activity at 1 µM

Sequence of KDRNEGFR2 (P35968 20-1356): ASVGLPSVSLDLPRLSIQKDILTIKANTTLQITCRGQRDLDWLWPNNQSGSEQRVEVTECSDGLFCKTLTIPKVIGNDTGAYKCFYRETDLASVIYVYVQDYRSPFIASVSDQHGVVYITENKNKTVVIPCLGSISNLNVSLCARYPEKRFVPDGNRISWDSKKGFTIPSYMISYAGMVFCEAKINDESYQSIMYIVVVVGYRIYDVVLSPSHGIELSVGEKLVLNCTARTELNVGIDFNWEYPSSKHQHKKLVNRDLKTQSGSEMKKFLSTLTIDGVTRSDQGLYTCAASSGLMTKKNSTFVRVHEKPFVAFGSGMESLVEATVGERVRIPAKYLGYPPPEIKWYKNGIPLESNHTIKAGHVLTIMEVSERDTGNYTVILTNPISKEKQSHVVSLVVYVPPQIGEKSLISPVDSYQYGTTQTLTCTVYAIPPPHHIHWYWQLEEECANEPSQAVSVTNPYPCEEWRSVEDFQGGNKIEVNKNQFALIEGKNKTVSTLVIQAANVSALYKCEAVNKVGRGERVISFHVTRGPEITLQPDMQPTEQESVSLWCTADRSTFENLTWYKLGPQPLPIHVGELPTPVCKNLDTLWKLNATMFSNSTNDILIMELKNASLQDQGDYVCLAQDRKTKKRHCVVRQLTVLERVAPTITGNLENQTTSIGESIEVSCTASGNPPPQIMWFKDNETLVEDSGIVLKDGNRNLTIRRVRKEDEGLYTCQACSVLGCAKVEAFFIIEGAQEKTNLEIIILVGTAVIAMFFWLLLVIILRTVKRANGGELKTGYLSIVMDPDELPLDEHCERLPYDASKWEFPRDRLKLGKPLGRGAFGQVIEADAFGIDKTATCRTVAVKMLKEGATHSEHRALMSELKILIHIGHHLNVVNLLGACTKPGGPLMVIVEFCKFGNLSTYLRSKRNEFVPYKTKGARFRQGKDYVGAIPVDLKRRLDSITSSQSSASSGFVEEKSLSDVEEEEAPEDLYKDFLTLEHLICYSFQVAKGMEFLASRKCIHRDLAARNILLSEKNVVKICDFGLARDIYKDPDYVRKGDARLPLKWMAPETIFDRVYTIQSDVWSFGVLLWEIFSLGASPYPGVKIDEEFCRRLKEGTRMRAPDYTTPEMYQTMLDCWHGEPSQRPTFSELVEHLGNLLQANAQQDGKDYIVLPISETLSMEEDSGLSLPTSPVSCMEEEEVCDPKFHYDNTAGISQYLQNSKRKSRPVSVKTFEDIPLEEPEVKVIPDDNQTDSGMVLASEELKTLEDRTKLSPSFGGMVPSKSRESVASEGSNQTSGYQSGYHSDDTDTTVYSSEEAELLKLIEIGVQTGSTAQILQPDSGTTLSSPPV
Sequence of TNK1 (Q13470 whole entry): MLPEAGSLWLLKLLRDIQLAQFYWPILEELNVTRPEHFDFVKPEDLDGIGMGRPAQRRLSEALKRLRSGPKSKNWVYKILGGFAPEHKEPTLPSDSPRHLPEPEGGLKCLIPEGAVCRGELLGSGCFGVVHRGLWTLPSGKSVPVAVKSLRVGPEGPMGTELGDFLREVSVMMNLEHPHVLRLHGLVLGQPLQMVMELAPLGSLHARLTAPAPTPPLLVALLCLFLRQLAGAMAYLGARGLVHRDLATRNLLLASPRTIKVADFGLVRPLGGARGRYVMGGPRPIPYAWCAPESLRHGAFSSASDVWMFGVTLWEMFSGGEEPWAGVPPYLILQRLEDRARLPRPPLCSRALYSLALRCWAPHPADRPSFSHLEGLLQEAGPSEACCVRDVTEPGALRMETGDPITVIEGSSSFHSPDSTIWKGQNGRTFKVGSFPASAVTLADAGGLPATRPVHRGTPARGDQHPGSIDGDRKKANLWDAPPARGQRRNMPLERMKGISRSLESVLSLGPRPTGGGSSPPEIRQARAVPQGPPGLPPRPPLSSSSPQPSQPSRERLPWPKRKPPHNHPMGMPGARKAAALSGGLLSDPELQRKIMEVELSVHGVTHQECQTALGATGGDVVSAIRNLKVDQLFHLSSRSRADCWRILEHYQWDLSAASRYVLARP
Sequence of ABL1 (P00519 whole entry): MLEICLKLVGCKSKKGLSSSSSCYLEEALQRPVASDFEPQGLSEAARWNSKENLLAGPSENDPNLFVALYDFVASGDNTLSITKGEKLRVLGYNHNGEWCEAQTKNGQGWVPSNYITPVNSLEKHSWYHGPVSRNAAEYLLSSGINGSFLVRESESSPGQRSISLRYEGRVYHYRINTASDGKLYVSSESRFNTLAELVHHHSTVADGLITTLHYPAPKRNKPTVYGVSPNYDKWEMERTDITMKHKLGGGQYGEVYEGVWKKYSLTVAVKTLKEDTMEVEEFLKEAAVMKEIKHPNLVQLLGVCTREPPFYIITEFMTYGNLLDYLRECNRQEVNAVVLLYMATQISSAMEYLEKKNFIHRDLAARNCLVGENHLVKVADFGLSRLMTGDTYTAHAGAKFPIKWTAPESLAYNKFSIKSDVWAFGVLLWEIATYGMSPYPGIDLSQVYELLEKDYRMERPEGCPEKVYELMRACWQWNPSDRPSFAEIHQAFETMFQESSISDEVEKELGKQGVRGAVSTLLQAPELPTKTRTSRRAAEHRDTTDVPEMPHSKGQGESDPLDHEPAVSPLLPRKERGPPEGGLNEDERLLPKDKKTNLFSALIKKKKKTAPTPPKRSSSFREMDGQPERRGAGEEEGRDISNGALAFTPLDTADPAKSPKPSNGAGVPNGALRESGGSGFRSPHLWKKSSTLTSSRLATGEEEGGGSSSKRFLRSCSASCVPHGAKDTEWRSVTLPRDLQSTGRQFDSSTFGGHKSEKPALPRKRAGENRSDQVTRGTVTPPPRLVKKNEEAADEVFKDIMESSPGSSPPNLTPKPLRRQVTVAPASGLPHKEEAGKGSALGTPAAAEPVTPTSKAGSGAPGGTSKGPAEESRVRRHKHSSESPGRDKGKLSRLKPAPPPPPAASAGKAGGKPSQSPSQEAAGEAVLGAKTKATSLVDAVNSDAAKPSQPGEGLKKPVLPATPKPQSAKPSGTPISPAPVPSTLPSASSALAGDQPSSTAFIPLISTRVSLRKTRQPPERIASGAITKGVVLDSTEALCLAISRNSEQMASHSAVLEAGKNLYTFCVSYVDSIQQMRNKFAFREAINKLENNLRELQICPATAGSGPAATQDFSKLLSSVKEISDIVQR
Sequence of LYN (P07948 whole entry): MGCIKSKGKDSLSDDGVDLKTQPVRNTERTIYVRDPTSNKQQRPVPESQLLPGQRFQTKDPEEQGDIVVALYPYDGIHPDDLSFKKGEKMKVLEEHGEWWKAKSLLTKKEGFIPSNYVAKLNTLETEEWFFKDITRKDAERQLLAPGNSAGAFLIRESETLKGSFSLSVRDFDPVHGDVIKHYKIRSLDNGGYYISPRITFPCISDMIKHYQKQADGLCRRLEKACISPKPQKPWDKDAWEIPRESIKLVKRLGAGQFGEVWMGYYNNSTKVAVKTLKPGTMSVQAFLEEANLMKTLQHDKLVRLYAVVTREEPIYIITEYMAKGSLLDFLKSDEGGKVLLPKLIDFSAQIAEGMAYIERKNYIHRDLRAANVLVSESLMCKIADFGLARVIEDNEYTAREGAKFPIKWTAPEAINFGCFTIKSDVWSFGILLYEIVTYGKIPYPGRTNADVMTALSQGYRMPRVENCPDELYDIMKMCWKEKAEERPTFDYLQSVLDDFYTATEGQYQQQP
Sequence of RAF1 (P04049 whole entry): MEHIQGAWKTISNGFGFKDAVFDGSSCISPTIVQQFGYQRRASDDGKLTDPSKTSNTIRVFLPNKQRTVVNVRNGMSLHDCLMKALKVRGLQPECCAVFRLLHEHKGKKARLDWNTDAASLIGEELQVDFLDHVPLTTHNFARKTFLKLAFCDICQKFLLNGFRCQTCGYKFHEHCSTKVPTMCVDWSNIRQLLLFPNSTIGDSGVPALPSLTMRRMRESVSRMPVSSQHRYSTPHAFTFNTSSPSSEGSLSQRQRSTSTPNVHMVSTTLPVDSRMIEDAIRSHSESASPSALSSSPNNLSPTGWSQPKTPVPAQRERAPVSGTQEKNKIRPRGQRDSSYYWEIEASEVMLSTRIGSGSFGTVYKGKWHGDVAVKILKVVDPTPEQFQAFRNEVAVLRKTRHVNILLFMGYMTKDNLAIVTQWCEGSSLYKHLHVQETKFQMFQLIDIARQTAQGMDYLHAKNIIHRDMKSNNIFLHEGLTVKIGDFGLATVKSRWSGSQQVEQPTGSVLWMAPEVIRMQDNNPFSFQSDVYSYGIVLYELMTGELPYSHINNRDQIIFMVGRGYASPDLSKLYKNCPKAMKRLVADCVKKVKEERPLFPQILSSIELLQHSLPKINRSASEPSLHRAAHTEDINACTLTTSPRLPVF
Sequence of FYN (P06241 whole entry): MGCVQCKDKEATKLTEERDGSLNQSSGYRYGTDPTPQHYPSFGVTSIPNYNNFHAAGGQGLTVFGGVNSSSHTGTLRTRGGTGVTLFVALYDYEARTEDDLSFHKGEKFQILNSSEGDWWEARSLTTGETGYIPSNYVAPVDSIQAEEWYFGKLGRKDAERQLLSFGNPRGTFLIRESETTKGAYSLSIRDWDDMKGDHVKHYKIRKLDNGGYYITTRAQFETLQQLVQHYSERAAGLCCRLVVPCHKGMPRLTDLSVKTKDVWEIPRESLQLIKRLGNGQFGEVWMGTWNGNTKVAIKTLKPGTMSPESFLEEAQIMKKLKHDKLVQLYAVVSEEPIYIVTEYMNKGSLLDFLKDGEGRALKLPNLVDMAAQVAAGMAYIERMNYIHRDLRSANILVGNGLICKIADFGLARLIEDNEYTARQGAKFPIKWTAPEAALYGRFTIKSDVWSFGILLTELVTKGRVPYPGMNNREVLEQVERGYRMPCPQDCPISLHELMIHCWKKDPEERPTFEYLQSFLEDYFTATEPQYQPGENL

CCN1CCN(C(=O)c2ccc(Nc3ncc4c(n3)N(C)C(=O)N(c3cc(NC(=O)Nc5ccccc5OC)ccc3C)C4)cn2)CC1 [Compound No. 14, 1-(3-(7-((6-(4-ethylpiperazin-1-carbonyl)pyridin-3-yl)amino)-1-methyl-2-oxo-1,4-dihydropyrimido[4,5-d]pyrimidin-3(2H)-yl)-4-methylphenyl)-3-(2-methoxyphenyl)urea]
≤ 30%: all assays above
